Experimental findings from ChEMBL document CHEMBL5241112, “Insights into the recent progress in the medicinal chemistry of pyranopyrimidine analogs” (RSC Med Chem, 2022) are described below.

Molecules are shown by their SMILES. Values after ≈ are worked out from the molar mass of the structure shown.

By MIC is commonly meant the lowest concentration that inhibits growth of the organism. What is called inhibition is the share of the control response that was lost under treatment. As a reminder, the IC50 is the concentration needed to halve the response being measured.

The test system of experiment [1] is Streptococcus pneumoniae. In words: Antibacterial activity against Streptococcus pneumoniae ATCC BAA-255/R6 assessed as diameter of inhibition zone at 50 mg/ml incubated for 24 hrs by paper disk diffusion method. The settings on record: read-out: DIZ. The experiment is classed as functional. For orientation: Agar diffusion results depend on both activity and mobility in agar.

Experiment [2] concerns Staphylococcus aureus. In words: Antibacterial activity against Staphylococcus aureus ATCC6538-P assessed as diameter of inhibition zone at 50 mg/ml incubated for 24 hrs by paper disk diffusion method. It is filed as functional. The settings on record: read-out: DIZ.
The test system of experiment [3] is Klebsiella pneumoniae. In words: Antibacterial activity against Klebsiella pneumoniae MGH 78578 assessed as diameter of inhibition zone at 50 mg/ml incubated for 24 hrs by paper disk diffusion method. It is filed as functional. The settings on record: read-out: DIZ.
In experiment [4] the test system is Aspergillus fumigatus. In words: microbe, parasite or virus in culture. The experiment is classed as functional. Conditions: ATCC204305, dose 50 mg/ml, time 24 hrs, read-out: DIZ.
Experiment [5] deals with Bacillus pumilus. In words: Antibacterial activity against Bacillus pumilus assessed as inhibition of bacterial growth by microdilution method. The experiment is classed as functional. On the technique in general: In broth dilution the organism is exposed to a series of concentrations in liquid medium.
For experiment [6], the system named is Enterococcus faecalis. Put plainly: Antibacterial activity against […] assessed as inhibition of bacterial growth by microdilution method. It is filed as functional.
The test system of experiment [7] is Escherichia coli. Put plainly: Antibacterial activity against Escherichia coli assessed as inhibition of bacterial growth by microdilution method. The experiment is classed as functional.
Experiment [8] deals with Enterobacter cloacae. In words: Antibacterial activity against Enterobacter cloacae assessed as inhibition of bacterial growth by microdilution method. It is filed as functional.
Experiment [9] concerns Aspergillus niger. Put plainly: Antifungal activity against Aspergillus niger assessed as inhibition of fungal growth by microdilution method. It is filed as functional.
The test system of experiment [10] is Candida albicans. In words: Antifungal activity against Candida albicans assessed as inhibition of fungal growth by microdilution method. The experiment is classed as functional.
Experiment [11] relates to Bacillus pumilus. Put plainly: Antibacterial activity against Bacillus pumilus assessed as inhibition of bacterial growth at MIC by microdilution method. It is filed as functional.
The subject of experiment [12] is Enterococcus faecalis. In words: Antibacterial activity against […] assessed as inhibition of bacterial growth at MIC by microdilution method. It is filed as functional.
In experiment [13] the test system is Enterobacter cloacae. In words: Antibacterial activity against Enterobacter cloacae assessed as inhibition of bacterial growth at MIC by microdilution method. It is filed as functional.
The test system of experiment [14] is Aspergillus niger. Put plainly: Antifungal activity against Aspergillus niger assessed as inhibition of fungal growth at MIC by microdilution method. It is filed as functional.
For experiment [15], the system named is Candida albicans. In words: Antifungal activity against Candida albicans assessed as inhibition of fungal growth at MIC by microdilution method. It is filed as functional.
Experiment [16] concerns Bacillus pumilus. Put plainly: Antibacterial activity against Bacillus pumilus assessed as minimum bactericidal concentration by microdilution method. The experiment is classed as functional.
The subject of experiment [17] is Enterococcus faecalis. Put plainly: Antibacterial activity against […] assessed as minimum bactericidal concentration by microdilution method. It is filed as functional.
In experiment [18] the test system is Enterobacter cloacae. In words: Antibacterial activity against Enterobacter cloacae assessed as minimum bactericidal concentration by microdilution method. The experiment is classed as functional.
Experiment [19] relates to Aspergillus niger. In words: […] activity against Aspergillus niger assessed as […] by microdilution method. It is filed as functional.
The test system of experiment [20] is Candida albicans. Put plainly: […] activity against Candida albicans assessed as […] by microdilution method. It is filed as functional.
The subject of experiment [21] is Bacillus subtilis. In words: Antibacterial activity against Bacillus subtilis ATCC 6633 assessed as diameter of inhibition zone incubated for 24 hrs by disc diffusion assay. The experiment is classed as functional.
For experiment [22], the system named is Bacillus subtilis. Put plainly: Antibacterial activity against Bacillus subtilis ATCC 6633 assessed as inhibition of bacterial growth incubated for 24 hrs by broth macrodilution method. The experiment is classed as functional.
Experiment [23] relates to Serratia marcescens. In words: Antibacterial activity against Serratia marcescens assessed as diameter of inhibition zone by disc diffusion method. It is filed as functional.
Experiment [24] concerns Staphylococcus aureus. In words: Antibacterial activity against Staphylococcus aureus assessed as inhibition of bacterial growth. The experiment is classed as functional.
Experiment [25] deals with Salmonella typhimurium. Put plainly: Antibacterial activity against Salmonella typhimurium MTCC 98 assessed as bacterial growth inhibition by broth microdilution method. The settings on record: Salmonella enterica. It is filed as functional, Salmonella enterica subsp. enterica serovar Typhimurium.
In experiment [26] the test system is Vibrio cholerae. Put plainly: Antibacterial activity against Vibrio cholerae MTCC 3906 assessed as bacterial growth inhibition by broth microdilution method. It is filed as functional.
For experiment [27], the system named is Staphylococcus aureus. Put plainly: Antibacterial activity against Staphylococcus aureus NCTC-7447 assessed as diameter of inhibition zone incubated for 24 hrs by disc diffusion method. The experiment is classed as functional.
The test system of experiment [28] is Bacillus cereus. Put plainly: Antibacterial activity against Bacillus cereus ATCC-14579 assessed as diameter of inhibition zone incubated for 24 hrs by disc diffusion method. It is filed as functional.
Experiment [29] concerns Serratia marcescens. Put plainly: Antibacterial activity against Serratia marcescens IMRU-70 assessed as diameter of inhibition zone incubated for 24 hrs by disc diffusion method. It is filed as functional.
For experiment [30], the system named is Proteus mirabilis. In words: Antibacterial activity against Proteus mirabilis NTCC-289 assessed as diameter of inhibition zone incubated for 24 hrs by disc diffusion method. The experiment is classed as functional.
In experiment [31] the test system is Clostridium tetani. In words: Antibacterial activity against Clostridium tetani MTCC 449 assessed as bacterial growth inhibition by broth microdilution method. It is filed as functional.
Experiment [32] deals with Escherichia coli. Put plainly: Antibacterial activity against Escherichia coli MTCC 443 assessed as bacterial growth inhibition by broth microdilution method. It is filed as functional.
Experiment [33] concerns Aspergillus fumigatus. In words: Antifungal activity against Aspergillus fumigatus MTCC 227 assessed as fungal growth inhibition by broth microdilution method. It is filed as functional.
The test system of experiment [34] is Mycobacterium tuberculosis. Put plainly: Antitubercular activity against Mycobacterium tuberculosis H37Rv assessed as bacterial growth inhibition at 250 ug/ml. The experiment is classed as functional.
The subject of experiment [35] is Mycobacterium tuberculosis. In words: Antitubercular activity against Mycobacterium tuberculosis H37Rv assessed as bacterial growth inhibition at 100 ug/ml. It is filed as functional.
In experiment [36] the test system is Streptococcus pneumoniae. Put plainly: Antibacterial activity against Streptococcus pneumoniae ATCC BAA-255/R6 assessed as inhibition of bacterial growth incubated for 24 hrs by disk diffusion method. The experiment is classed as functional.
A short description of experiment [37]: Inhibition of Escherichia coli topoisomerase 4 assessed as reduction in decatenation.
Experiment [38] deals with Plasmodium falciparum. In words: microbe, parasite or virus in culture.
Experiment [39] relates to Escherichia coli. In words: Antibacterial activity against Escherichia coli ATCC 25922 assessed as diameter of inhibition zone incubated for 24 hrs by disc diffusion assay. It is filed as functional.
Experiment [40] concerns Pseudomonas aeruginosa. In words: Antibacterial activity against Pseudomonas aeruginosa ATCC 27853 assessed as diameter of inhibition zone incubated for 24 hrs by disc diffusion assay. The experiment is classed as functional.
The test system of experiment [41] is Aspergillus niger. In words: Antifungal activity against Aspergillus niger ATCC 6275 assessed as diameter of inhibition zone incubated for 7 days by disc diffusion assay. It is filed as functional. Conditions: time 7 day.
The test system of experiment [42] is Escherichia coli. In words: Antibacterial activity against Escherichia coli ATCC 25922 assessed as inhibition of bacterial growth incubated for 24 hrs by broth macrodilution method. The experiment is classed as functional.
Experiment [43] has as its system Pseudomonas aeruginosa. In words: Antibacterial activity against Pseudomonas aeruginosa ATCC 27853 assessed as inhibition of bacterial growth incubated for 24 hrs by broth macrodilution method. It is filed as functional.
Experiment [44] deals with Aspergillus niger. Put plainly: Antifungal activity against Aspergillus niger ATCC 6275 assessed as inhibition of […] growth incubated for 7 days by broth macrodilution method. The settings on record: ATCC 6275, 168 h, time 7 day. The experiment is classed as functional.
Experiment [45] concerns HepG2. Put plainly: Anticancer activity against human HepG2 cells assessed as reduction in cell viability. It is filed as functional, cell-based.
Experiment [46] deals with MCF7. Put plainly: Anticancer activity against human MCF7 cells assessed as reduction in cell viability. The experiment is classed as functional, cell-based.
Experiment [47] deals with HCT-116. Put plainly: cells. Conditions: Homo sapiens.
Experiment [48] has as its system Penicillium italicum. In words: microbe, parasite or virus in culture. The settings on record: CECT 2294, dose 50 mg/ml, time 24 hrs, read-out: DIZ. The experiment is classed as functional.

In the case of `Cc1nc2c(c(=O)[nH]1)C(c1ccc(Cl)cc1)C=C(c1cc3ccccc3oc1=O)O2` (stereo not drawn), the zone of inhibition at 50000 µg/mL in experiment [1] worked out at 14 mm; in [2], 10 mm; in experiment [3], 20 mm; in experiment [4], 10 mm.
As to `CCOC(=O)C1=C(N)OC2C(C(=O)N(c3ccc(C)cc3)C(=S)N2c2ccc(C)cc2)C1c1ccccc1` (stereo not drawn), the MIC in experiment [5] came out at 31.2 µg/mL (≈ 59.1 µM); in experiment [6], 15.6 µg/mL (≈ 29.6 µM); in experiment [7], 15.6 µg/mL (≈ 29.6 µM); in experiment [8], 62.5 µg/mL (≈ 118 µM); in experiment [9], 15.6 µg/mL; in experiment [10], 31.2 µg/mL. Moreover, the “inhibition (INH)” value in [11] is recorded as 66.4%; in experiment [12], 69.5%; in experiment [13], 29.2%; in [14] it was 85.1%; in experiment [15] it was 79.7%. Moreover, the MBC in [16] was determined as 125 µg/mL (≈ 237 µM); in experiment [17], 62.5 µg/mL (≈ 118 µM); in [18], 62.5 µg/mL (≈ 118 µM); in experiment [19], 500 µg/mL (≈ 948 µM); in experiment [20], 62.5 µg/mL (≈ 118 µM).
Turning to `CC1(C)S[C@@H]2[C@H](NC(=O)[C@H](N)c3ccccc3)C(=O)N2[C@H]1C(=O)O` [AMPICILLIN], the “diameter of the inhibition zone (DIZ)” value in experiment [21] was 32.4 mm; in experiment [23], 25 mm; in experiment [27], 25 mm; in experiment [28], 25 mm; in experiment [29], 25 mm; in experiment [30], 25 mm. Besides, the MIC in experiment [22] stood at 0.45 µg/mL (≈ 1.29 µM); in experiment [24], 250 µg/mL (≈ 715 µM); in experiment [25], 100 µg/mL (≈ 286 µM); in experiment [26], 100 µg/mL (≈ 286 µM).
As to `CCOC(=O)C1=C(N)Oc2c(c(=O)n(C)c(=O)n2C)C1c1c(C)nn(-c2ccccc2)c1-n1ccnc1` (stereo not drawn), the MIC in experiment [31] was 100 µg/mL (≈ 199 µM); in experiment [32] it was 62.5 µg/mL (≈ 124 µM); in experiment [25], 100 µg/mL (≈ 199 µM); in [33] it was 200 µg/mL (≈ 397 µM). Also, the inhibition at 250 µg/mL in experiment [34] was found to be 84%. In experiment [35], the inhibition at 100 µg/mL was found to be 30%.
With `Nc1nc(=O)[nH]c2c1C(c1ccc(Cl)cc1)C=C(c1cc3ccccc3oc1=O)O2` (stereo not drawn), the zone of inhibition at 50000 µg/mL in experiment [1] stood at 10 mm; in experiment [2] it was 18 mm; in experiment [4] it was 10 mm. In addition, the MIC in [36] stood at 7.8 µg/mL (≈ 18.6 µM). In addition, the IC50 in [37] was found to be 237 nM.
Take `Cc1nn(-c2ccccc2)c(-n2ccnc2)c1C1C(C#N)=C(N)Oc2[nH]c(=O)[nH]c(=O)c21` (stereo not drawn): the MIC came to 100 µg/mL (≈ 233 µM) in experiment [31], 662 µg/mL (≈ 1550 µM) in [26] and 200 µg/mL (≈ 467 µM) in [33]. The inhibition at 250 µg/mL in experiment [34] came to 95%. Besides, in [35], the inhibition at 100 µg/mL turned out to be 92%. In addition, the midpoint of inhibition in experiment [38], the IC50, lay at 0.97 µg/mL (≈ 2.26 µM).
In the case of `COc1ccc(C2c3c([nH]c(=O)[nH]c3=O)Oc3ncn(-c4cc(C)ccn4)c(=N)c32)cc1` (stereo not drawn), the “diameter of the inhibition zone (DIZ)” value came out at 18.1 mm in [39], 17.3 mm in [40] and 17.2 mm in experiment [41]. For the same compound, the MIC in experiment [42] was found to be 0.781 µg/mL (≈ 1.81 µM); in experiment [43] it was 3.12 µg/mL (≈ 7.26 µM); in [44] it was 15.4 µg/mL (≈ 35.7 µM). Further, the figures for the IC50 in experiment [45], in experiment [46] and in experiment [47] were 2090 nM, 2430 nM and 2610 nM, respectively.
With `Clc1ccc(COC(Cn2ccnc2)c2ccc(Cl)cc2Cl)c(Cl)c1` (stereo not drawn) [MICONAZOLE NITRATE], the zone of inhibition at 50000 µg/mL in experiment [48] is 17 mm; in [4], 19 mm.
